From article PMC10584170, “Machine learning-based phenotypic imaging to characterise the targetable biology of Plasmodium falciparum male gametocytes for the development of transmission-blocking antimalarials” (PLOS Pathogens, 2023)

Assays:
[1] = tested on: P. falciparum male gametocytes; experiment: P. falciparum Dual Gamete Formation Assay (PfDGFA), male readout (exflagellation); type: cell-based, Plasmodium falciparum NF54; details: for % inhibition male (individual replicates) R1: replicate R1; for % inhibition male (individual replicates) R4: replicate R4; for Average inhibition male (%): average of replicates; for % inhibition male (individual replicates) R3: replicate R3; for Activity: hit = >50% inhibition in male or female readout in at least 3 replicates, 0 = no class assigned
How it was run: (§1)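 Read-outs are automated image counts of exflagellation centres (brightfield, 10 frames over 1 s) and Pfs25-positive female gametes (Cy3 fluorescence).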

[2] = tested on: P. falciparum female gametocytes; experiment: P. falciparum Dual Gamete Formation Assay (PfDGFA), female readout (Pfs25-positive female gametes); type: cell-based, Plasmodium falciparum NF54; details: for % inhibition female (individual replicates) R1: replicate R1; for % inhibition female (individual replicates) R3: replicate R3; for % inhibition female (individual replicates) R4: replicate R4; for Average inhibition female (%): average of replicates
How it was run: as §1

[3] = PfDGFA at 2µM, 24h preincubation with gametocytes prior to induction of gametogenesis
[4] = PfDGFA at 2µM, 24h preincubation
[5] = 2µM, 24h preincubation with gametocytes prior to induction of gametogenesis
[6] = 2µM, 24h preincubation, hits selected on >50% inhibition in the male readout across replicates
[7] = 2µM, 24h preincubation, hits selected on >50% inhibition in the female readout across replicates
[8] = PfDGFA at 2µM, 24h preincubation with gametocytes
[9] = number of replicates with >50% inhibition in the male readout, 2µM
[10] = number of replicates with >50% inhibition in the female readout, 2µM

| SMILES | % inhibition male (individual replicates) R1 [1, 3] [%] | % inhibition male (individual replicates) R4 [1, 3] [%] | Average inhibition male (%) [1, 4] [%] | % inhibition female (individual replicates) R1 [2, 3] [%] | % inhibition female (individual replicates) R3 [2, 3] [%] | % inhibition female (individual replicates) R4 [2, 3] [%] | Average inhibition female (%) [2, 4] [%] | Average inhibition male (%) [1, 5] [%] | % inhibition male (individual replicates) R1 [1, 5] [%] | % inhibition male (individual replicates) R4 [1, 5] [%] | HitlevelM [1, 6] | Activity [1, 4] | Average inhibition female (%) [2, 5] [%] | % inhibition female (individual replicates) R1 [2, 5] [%] | % inhibition female (individual replicates) R3 [2, 5] [%] | % inhibition female (individual replicates) R4 [2, 5] [%] | HitlevelF [2, 7] | % inhibition male (individual replicates) R3 [1, 3] [%] | also measured |
| --- | --- | --- | --- | --- | --- | --- | --- | --- | --- | --- | --- | --- | --- | --- | --- | --- | --- | --- | --- |
| COc1ccc(CNC(=O)c2cnc3cc(-c4c(C)noc4C)ccc3c2Nc2ccccc2C(C)(C)C)cc1.Cl [TCMDC-136367] | -0.3 | -17.2 | -9.5 | -1.1 | -0.6 | 13.4 | 2.7 | – | – | – | – | – | – | – | – | – | – | – | – |
| COc1cc(Br)c(S(=O)(=O)n2cc(CN3CCC(N)CC3)c3cc(Cl)ccc32)cc1OC.O=C(O)C(F)(F)F [TCMDC-136384] | – | – | – | – | – | – | – | 17.6 | 5.7 | 29.6 | 0 | 0 | 13.1 | 17.7 | 22.3 | -2.1 | 0 | – | % inhibition male (individual replicates) R3 [1, 5]: -10.3% |
| COc1cc(C(=O)N2CCN(C(C)C)CC2)ccc1CN(C)CCCCN1CCN(c2cccc(Cl)c2Cl)CC1.Cl [TCMDC-136506] | – | – | – | – | – | – | – | 24.1 | 21.0 | 30.9 | 1 | 0 | 13.2 | 17.9 | 17.6 | 12.7 | 0 | – | % inhibition male (individual replicates) R3 [1, 5]: -5.5% |
| CN(C)Cc1c(O)ccc2[nH]c(-c3cccc(F)c3)nc12 [TCMDC-136535] | -6.0 | 8.9 | -3.8 | 14.3 | -20.0 | -2.1 | -3.2 | – | – | – | – | – | – | – | – | – | – | -26.3 | – |
| C[C@@H](CNc1ccnc(Nc2ccc3[nH]c(=O)[nH]c3c2)n1)c1ccccc1 [TCMDC-136803] | -12.9 | -10.1 | -9.4 | 0.6 | -4.3 | 9.5 | 0.458 | – | – | – | – | – | – | – | – | – | – | – | – |
| Cc1cc(N2CCCN(CC3CCCCC3)CC2)nc(Nc2ccc(Br)cc2)n1 [TCMDC-137133] | – | – | – | – | – | – | – | -4.7 | -4.0 | -6.5 | 0 | 0 | 14.4 | 13.7 | 2.2 | 35.3 | 0 | – | % inhibition male (individual replicates) R3 [1, 5]: -2.0% |
| CCOc1cc(Cc2cnc(N)nc2N)cc(OCC)c1O [TCMDC-137181] | 23.6 | 11.2 | 22.7 | -0.02 | 1.9 | -15.6 | -3.9 | – | – | – | – | – | – | – | – | – | – | 21.9 | – |
| CNC(=O)C(NC(=O)c1ccccc1C(=O)OC)c1ccccc1 (centres unmarked) [TCMDC-137226] | 12.9 | -18.5 | -3.7 | 18.3 | -7.8 | -6.5 | 2.2 | – | – | – | – | – | – | – | – | – | – | -28.2 | – |
| COc1cc(Cc2cnc(N)nc2N)cc(OCCCCC2SC(=O)NC2=O)c1Br (centres unmarked) [TCMDC-137240] | 22.0 | -19.8 | 3.4 | 12.9 | 1.7 | -5.0 | 2.6 | – | – | – | – | – | – | – | – | – | – | 3.4 | – |
| Cc1nc2nc(N)nc(N)c2c(C)c1Cc1ccccc1Br.Cl [TCMDC-137242] | 34.5 | -12.5 | 16.6 | 10.1 | -11.3 | 2.1 | -2.4 | – | – | – | – | – | – | – | – | – | – | 1.0 | – |
| Cc1c(Cc2ccccc2Br)cnc2nc(N)nc(N)c12.Cl [TCMDC-137244] | 13.7 | 3.9 | 10.5 | 1.3 | -18.4 | -3.4 | -6.0 | – | – | – | – | – | – | – | – | – | – | 18.7 | – |
| CCC(CC)n1c(C)cc2c3c(N)nc(N)nc3ccc21 [TCMDC-137283] | – | – | – | – | – | – | – | 25.7 | 19.3 | 21.2 | 0 | 0 | 4.2 | -6.1 | 8.3 | 19.7 | 0 | – | % inhibition male (individual replicates) R3 [1, 5]: 21.9% |
| CCCc1cc(Cc2cnc(N)nc2N)cc(CCC)c1OCCCCC(=O)O [TCMDC-137293] | – | – | – | – | – | – | – | -0.757 | 18.6 | -35.8 | 0 | 0 | 8.1 | 3.0 | -4.5 | 42.6 | 0 | – | % inhibition male (individual replicates) R3 [1, 5]: 1.6% |
| CCN(CC)S(=O)(=O)n1ncc2c3c(N)nc(N)nc3ccc21.Cl [TCMDC-137302] | 16.7 | -41.8 | 0.1 | 5.9 | -12.1 | -12.9 | -8.3 | – | – | – | – | – | – | – | – | – | – | -8.5 | – |
| O=C1O[C@H](c2ccccc2)[C@H](c2ccccc2)N(C(=O)OCc2ccccc2)[C@H]1Cc1ccccc1C1CCCC1 [TCMDC-137303] | – | – | – | – | – | – | – | -2.7 | 16.1 | -23.7 | 0 | 0 | 4.6 | 6.2 | -0.36 | 6.0 | 0 | – | – |
| CCc1cc2c3c(N)nc(N)nc3ccc2n1C(C)(C)C [TCMDC-137306] | 25.5 | 15.6 | 21.0 | -1.8 | -28.9 | 1.8 | -7.8 | – | – | – | – | – | – | – | – | – | – | 27.4 | – |
| CC(C)n1c(C(C)(C)C)cc2c3c(N)nc(N)nc3ccc21 [TCMDC-137311] | – | – | – | – | – | – | – | – | – | – | – | – | – | – | – | – | – | – | Average inhibition male (%) [1, 8]: 66.3%; % inhibition male (individual replicates) R1 [1, 8]: 58.8%; % inhibition male (individual replicates) R3 [1, 8]: 70.2%; % inhibition male (individual replicates) R4 [1, 8]: 54.6%; HitlevelM [1, 9]: 4; Average inhibition female (%) [2, 8]: -0.8%; % inhibition female (individual replicates) R1 [2, 8]: -8.1%; % inhibition female (individual replicates) R3 [2, 8]: 21.9%; % inhibition female (individual replicates) R4 [2, 8]: -9.1%; HitlevelF [2, 10]: 0 |
| COc1ccc2c(c1CCNCCCCNCCc1c(OC)ccc3c1CCCC3)CCCC2.CS(=O)(=O)O [TCMDC-137324] | – | – | – | – | – | – | – | – | – | – | – | – | – | – | – | – | – | – | Average inhibition male (%) [1, 8]: 81.7%; % inhibition male (individual replicates) R1 [1, 8]: 91.2%; % inhibition male (individual replicates) R3 [1, 8]: 86.5%; % inhibition male (individual replicates) R4 [1, 8]: 98.0%; HitlevelM [1, 9]: 4; Average inhibition female (%) [2, 8]: 79.4%; % inhibition female (individual replicates) R1 [2, 8]: 79.9%; % inhibition female (individual replicates) R3 [2, 8]: 84.0%; % inhibition female (individual replicates) R4 [2, 8]: 85.5%; HitlevelF [2, 10]: 4 |
| CC(C(=O)OCCOCn1cnc2c(=O)[nH]c(N)nc21)N(C)C(=O)OC(C)(C)C (centres unmarked) [TCMDC-137343] | 2.6 | -43.6 | -14.6 | 1.2 | -8.6 | 4.1 | -0.55 | – | – | – | – | – | – | – | – | – | – | – | – |
